We go through 4 compounds from publication PMC8582298 (ChemMedChem, 2020).

Test [1] has as its target T1, PP1 (Oryctolagus cuniculus, UniProt P62139). To be noted: literature values; cited from earlier work.
Test [2] concerns the target T1, PP1. Kind of test: Malachite green assay, IC50 determination, PP1. The following applies: for PP1 versus PP2A preference (in words): based on IC50 values; for IC50 PP1: malachite green assay, phosphopeptide K-R-pT-I-R-R 40 μM, 30 °C, three trials. Type of test: biochemical.
Another test concerns the target PP2A (Homo sapiens, UniProt P67775). Put plainly: Malachite green assay, IC50 determination, PP2A. Type of test: biochemical.

Each structure is given as a SMILES string.

PP2A, sequence (P67775 whole entry): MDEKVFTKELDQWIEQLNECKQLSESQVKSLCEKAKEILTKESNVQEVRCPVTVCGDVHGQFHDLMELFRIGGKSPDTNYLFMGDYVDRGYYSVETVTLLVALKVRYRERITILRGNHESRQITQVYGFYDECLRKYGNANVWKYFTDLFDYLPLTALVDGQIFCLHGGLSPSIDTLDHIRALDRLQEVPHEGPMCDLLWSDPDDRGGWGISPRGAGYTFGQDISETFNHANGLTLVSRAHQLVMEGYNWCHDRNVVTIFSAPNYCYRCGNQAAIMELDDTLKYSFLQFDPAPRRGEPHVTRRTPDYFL
T1 sequence (P62139 whole entry): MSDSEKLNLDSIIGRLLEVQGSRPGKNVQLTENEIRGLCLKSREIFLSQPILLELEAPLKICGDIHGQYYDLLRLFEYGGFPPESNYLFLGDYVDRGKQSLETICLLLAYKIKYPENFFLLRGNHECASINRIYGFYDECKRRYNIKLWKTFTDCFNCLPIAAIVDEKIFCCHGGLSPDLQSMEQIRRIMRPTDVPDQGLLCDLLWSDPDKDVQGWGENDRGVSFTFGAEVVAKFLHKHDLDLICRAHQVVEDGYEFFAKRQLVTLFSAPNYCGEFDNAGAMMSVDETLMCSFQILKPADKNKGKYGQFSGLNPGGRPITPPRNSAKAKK

As for `CO[C@H]([C@H](O)CC(=O)[C@@H](C)[C@@H](O)CC[C@@H](C)[C@@H]1O[C@]2(CC[C@@H](C)[C@H](CC[C@H](C)C(C)=O)O2)CC[C@@H]1C)[C@H](OC(=O)C[C@@H](O)C1=C(C)C(=O)OC1=O)C(C)C` [TTM, tautomycin], the “Selectivity for PP1 over PP2A” value at PP1 [1] was “approximately 5 fold”.

With `C=C/C(=C/C(=O)C[C@H](C)C[C@@H](C)CC[C@H](O)[C@H](C)C(=O)C[C@@H](O)[C@H](C)[C@@H](C)OC(=O)C[C@@H](O)C1=C(C)C(=O)OC1=O)CC` [TTN, tautomycetin, reference compound], the “Selectivity for PP1 over PP2A” value at PP1 [1] was about 140 fold. Also, the figures for the half-maximal inhibitory concentration (IC50) against PP1 [2] and against PP2A were 11 ± 1 nM and 490 nM, respectively.

For the compound `CC1=C([C@H](O)CC(=O)O[C@H](C)[C@@H](C)[C@H](O)CC(=O)[C@@H](C)[C@@H](O)CCCCCOC(=O)c2ccc(-c3ccccc3)cc2)C(=O)OC1=O` [1e, (6S,7S,10R,11S,12R)-6,10-dihydroxy-12-(((R)-3-hydroxy-3-(4-methyl-2,5-dioxo-2,5-dihydrofuran-3-yl)propanoyl)oxy)-7,11-dimethyl-8-oxotridecyl [1,1’-biphenyl]-4-carboxylate], on PP1 [2], the IC50 (as a rule, the concentration at which inhibition is half-maximal) came to 1500 ± 150 nM; the “PP1 versus PP2A preference (in words)” value is “PP1 selective”; the “IC50 PP1” value is listed as “nanomolar range”. Further, the IC50 against PP2A is 6800 nM.

In the case of `CC1=C([C@H](O)CC(=O)O[C@H](C)[C@@H](C)[C@H](O)CC(=O)[C@@H](C)[C@@H](O)CCCCCOC(=O)c2ccccc2)C(=O)OC1=O` [1d, (6S,7S,10R,11S,12R)-6,10-dihydroxy-12-(((R)-3-hydroxy-3-(4-methyl-2,5-dioxo-2,5-dihydrofuran-3-yl)propanoyl)oxy)-7,11-dimethyl-8-oxotridecyl benzoate], at PP1 [2], the half-inhibitory concentration (IC50) was 34 ± 2 nM, the “PP1 versus PP2A preference (in words)” value is on record as “PP1 selective” and the “IC50 PP1” value is listed as “nanomolar range”. For the same compound, it took 260 nM to reach half-maximal inhibition against PP2A (IC50).
